# Laboratory results as given in patent publication US10010539B2, “Pyrazole, triazole and tetrazole orexin receptor antagonists” (MERCK SHARP & DOHME CORP., priority 2014, dated 2018).
# Tests used:
# human orexin-2 receptor = human orexin-2 receptor (Homo sapiens (Human), UniProt O43614); test: FLIPR Ca2+ Flux Assay, orexin-2 receptor (hOX2R FLIPR); format: cell-based; conditions: CHO cells expressing the human orexin-2 receptor; agonist 70 pM Ala-6,12 human orexin-A
# Method: (§1) The utility of the compounds in accordance with the present invention as orexin receptor OX1R and/or OX2R antagonists may be readily determined without undue experimentation by methodology well known in the art, including the “FLIPR Ca^2+ Flux Assay” (Okumura et al., Biochem. Biophys. Res. Comm. 280:976-981, 2001). In a typical experiment the OX1 and OX2 receptor antagonistic activity of the compounds of the present invention was determined in accordance with the following experimental method. For intracellular calcium measurements, Chinese hamster ovary (CHO) cells expressing the rat orexin-1 receptor or the human orexin-2 receptor, are grown in Iscove's modified DMEM containing 2 mM L-glutamine, […], 1% hypoxanthine-thymidine supplement, 100 U/ml penicillin, 100 μg/ml streptomycin and 10% heat-inactivated fetal calf serum (FCS). The cells are seeded at 20,000 cells/well into Becton-Dickinson black 384-well clear bottom sterile plates coated with poly-D-lysine. All reagents were from GIBCO-Invitrogen Corp. The seeded plates are incubated overnight at 37° C. and 5% CO2. Ala-6,12 human orexin-A as the agonist is prepared as a 1 mM stock solution in 1% bovine serum albumin (BSA) and diluted in assay buffer (HBSS containing 20 mM HEPES, 0.1% BSA and 2.5 mM probenecid, pH7.4) for use in the assay at a final concentration of 70 pM. Test compounds are prepared as 10 mM stock solution in DMSO, then diluted in 384-well plates, first in DMSO, then assay buffer. On the day of the assay, cells are washed 3 times with 100 μl assay buffer and then incubated for 60 min (37° C., 5% CO2) in 60 μl assay buffer containing 1 μM Fluo-4AM ester, 0.02% pluronic acid, and 1% BSA. The dye loading solution is then aspirated and cells are washed 3 times with 100 μl assay buffer. 30 μl of that same buffer is left in each well. Within the Fluorescent Imaging Plate Reader (FLIPR, Molecular Devices), test compounds are added to the plate in a volume of 25 μl, incubated for 5 min and finally 25 μl of agonist is added. Fluorescence is measured for each well at 1 second intervals for 5 minutes and the height of each fluorescence peak is compared to the height of the fluorescence peak induced by 70 pM Ala-6,12 orexin-A with buffer in place of antagonist. For each antagonist, IC50 value (the concentration of compound needed to inhibit 50% of the agonist response) is determined. Alternatively, compound potency can be assessed by a radioligand binding assay (described in Bergman et. al. Bioorg. Med. Chem. Lett. 2008, 18, 1425-1430) in which the inhibition constant (Ki) is determined in membranes prepared from CHO cells expressing either the OX1 or OX2 receptor. The intrinsic orexin receptor antagonist activity of a compound which may be used in the present invention may be determined by these assays.
# [1] = biological target: hOXIR (orexin-1 receptor) (Homo sapiens, UniProt O43613); test: FLIPR Ca2+ Flux Assay, orexin-1 receptor (hOXIR FLIPR); format: cell-based; conditions: CHO cells expressing the orexin-1 receptor (method text: rat; table head: hOXIR); agonist 70 pM Ala-6,12 human orexin-A
# Method: as §1
# human orexin-2 receptor, sequence (O43614 whole entry): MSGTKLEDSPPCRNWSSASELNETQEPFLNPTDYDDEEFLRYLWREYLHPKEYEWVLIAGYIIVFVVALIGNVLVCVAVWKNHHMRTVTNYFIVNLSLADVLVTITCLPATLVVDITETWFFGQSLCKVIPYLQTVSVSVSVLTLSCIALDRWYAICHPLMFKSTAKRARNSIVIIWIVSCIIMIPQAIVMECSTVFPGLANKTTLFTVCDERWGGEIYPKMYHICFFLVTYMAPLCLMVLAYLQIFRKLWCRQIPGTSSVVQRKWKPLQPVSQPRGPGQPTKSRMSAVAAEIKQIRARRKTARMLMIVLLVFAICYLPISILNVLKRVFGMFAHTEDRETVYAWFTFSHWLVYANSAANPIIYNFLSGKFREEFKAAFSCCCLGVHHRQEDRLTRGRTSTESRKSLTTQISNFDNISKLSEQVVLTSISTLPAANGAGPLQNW
SMILES,IC50 (human orexin-2 receptor),IC50 [1]
"C[C@@H]1CC[C@@H](n2ncc(C(C)(C)O)n2)CN1C(=O)c1cc(F)ccc1-n1nccn1 [Example 38, 2-{2-[(3R,6R)-1-{[5-fluoro-2-(2H-1,2,3-triazol-2-yl)phenyl]carbonyl}-6-methylpiperidin-3-yl]-2H-1,2,3-triazol-4-yl}propan-2-ol]",27.5 nM,> 10000 nM
"C[C@@H]1CC[C@@H](n2cc(C(C)(C)O)cn2)CN1C(=O)c1nccnc1-n1nccn1 [Example 101, 2-{1-[(3R,6R)-6-Methyl-1-{[3-(2H-1,2,3-triazol-2-yl)pyrazin-2-yl]carbonyl}piperidin-3-yl]-1H-pyrazol-4-yl}propan-2-ol]",479 nM,> 10000 nM
"C[C@@H]1CC[C@@H](n2cc([C@H](O)C(F)(F)F)cn2)CN1C(=O)c1ccccc1-n1nccn1 [Example 103, (1S)-2,2,2-Trifluoro-1-{1-[(3R,6R)-6-methyl-1-{[2-(2H-1,2,3-triazol-2-yl)phenyl]carbonyl}piperidin-3-yl]-1H-pyrazol-4-yl}ethanol]",102 nM,> 10000 nM
"Cc1ccc(-n2nccn2)c(C(=O)N2C[C@H](n3ncc(C(C)(C)O)n3)CC[C@H]2C)c1 [Example 52, 2-{2-[(3R,6R)-6-methyl-1-{[5-methyl-2-(2H-1,2,3-triazol-2-yl)phenyl]carbonyl}piperidin-3-yl]-2H-1,2,3-triazol-4-yl}propan-2-ol]",59.8 nM,3090 nM
"COc1cccc(-n2nccn2)c1C(=O)N1C[C@H](n2ncc(C(C)(C)O)n2)CC[C@H]1C [Example 51, 2-{2-[(3R,6R)-1-{[2-methoxy-6-(2H-1,2,3-triazol-2-yl)phenyl]carbonyl}-6-methylpiperidin-3-yl]-2H-1,2,3-triazol-4-yl}propan-2-ol]",67.4 nM,> 10000 nM
"C[C@@H]1CC[C@@H](n2ncc(-c3ccccc3)n2)CN1C(=O)c1ccccc1-n1nccn1 [Example 28, (2-(2H-1,2,3-triazol-2-yl)phenyl)((2R,5R)-2-methyl-5-(4-phenyl-2H-1,2,3-triazol-2-yl)piperidin-1-yl)methanone]",69.7 nM,54 nM
"C[C@@H]1CC[C@@H](n2ncc(C(C)(C)O)n2)CN1C(=O)c1ccccc1OCC(F)F [Example 18, (2-(2,2-Difluoroethoxy)phenyl)((2R,5R)-5-(4-(2-hydroxypropan-2-yl)-2H-1,2,3-triazol-2-yl)-2-methylpiperidin-1-yl)methanone]",15 nM,> 10000 nM
"C[C@@H]1CC[C@@H](n2cc(C(C)(C)O)cn2)CN1C(=O)c1ccccc1-n1nccn1 [Example 75, 2-{1-[(3R,6R)-6-Methyl-1-{[2-(2H-1,2,3-triazol-2-yl)phenyl]carbonyl}piperidin-3-yl]-1H-pyrazol-4-yl}propan-2-ol]",21.6 nM,> 10000 nM
"C[C@@H]1CC[C@@H](n2cc(C(C)(C)O)cn2)CN1C(=O)c1ccccc1OCC(F)(F)F [Example 80, 2-{1-[(3R,6R)-6-Methy-1-{[2-(2,2,2-trifluoroethoxy)phenyl]carbonyl}piperidin-3-yl]-1H-pyrazol-4-yl}propan-2-ol]",165 nM,> 10000 nM
"CC(C)c1ccccc1C(=O)N1C[C@H](n2cc(C(C)(C)O)cn2)CC[C@H]1C [Example 82, 2-{1-[(3R,6R)-6-Methyl-1-{[2-(1-methylethyl)phenyl]carbonyl}piperidin-3-yl]-1H-pyrazol-4-yl}propan-2-ol]",347 nM,> 10000 nM
"Cc1nn([C@@H]2CC[C@@H](C)N(C(=O)c3cccnc3OCC(F)(F)F)C2)nc1C(C)(C)O [Example 68, 2-{5-mMethyl-2-[(3R,6R)-6-methyl-1-{[2-(2,2,2-trifluoroethoxy)pyridin-3-yl]carbonyl}piperidin-3-yl]-2H-1,2,3-triazol-4-yl}propan-2-ol]",6.9 nM,1520 nM
"C[C@@H]1CC[C@@H](n2ncc(C(C)(C)O)n2)CN1C(=O)c1ccccc1OC(F)F [Example 21, (2-(Difluoromethoxy)phenyl)((2R,5R)-5-(4-(2-hydroxypropan-2-yl)-2H-1,2,3-triazol-2-yl)-2-methylpiperidin-1-yl)methanone]",18 nM,> 10000 nM
"Cc1nn([C@@H]2CC[C@@H](C)N(C(=O)c3ccccc3-n3cccn3)C2)nc1C(C)(C)O [Example 71, 2-{5-Methyl-2-[(3R,6R)-6-methyl-1-{[2-(1H-pyrazol-1-yl)phenyl]carbonyl}piperidin-3-yl]-2H-1,2,3-triazol-4-yl}propan-2-ol]",9.3 nM,2710 nM
"COCCc1ccccc1C(=O)N1C[C@H](n2ncc(C(C)(C)O)n2)CC[C@H]1C [Example 44, 2-{2-[(3R,6R)-1-{[2-(2-methoxyethyl)phenyl]carbonyl}-6-methylpiperidin-3-yl]-2H-1,2,3-triazol-4-yl}propan-2-ol]",897 nM,> 10000 nM
Cc1cccc(C(=O)N2C[C@H](n3ncc(C(C)(C)O)n3)CC[C@H]2C)c1-n1nccn1 [Example 46],56.4 nM,> 10000 nM
"C[C@@H]1CC[C@@H](n2cc(C(C)(C)O)cn2)CN1C(=O)c1ccccc1OC(F)(F)F [Example 83, 2-{1-[(3R,6R)-6-Methyl-1-{[2-(trifluoromethoxy)phenyl]carbonyl}piperidin-3-yl]-1H-pyrazol-4-yl}propan-2-ol]",31.4 nM,> 10000 nM
"CC(O)c1cnn([C@@H]2CC[C@@H](C)N(C(=O)c3cccnc3OCC(F)F)C2)n1 (stereo partly drawn) [Example 61, 1-{2-[(3R,6R)-1-{[2-(2,2-Difluoroethoxy)pyridin-3-yl]carbonyl}-6-methylpiperidin-3-yl]-2H-1,2,3-triazol-4-yl}ethanol]",681 nM,> 10000 nM
"C[C@@H]1CC[C@@H](n2cc(C(C)(C)O)cn2)CN1C(=O)c1nccnc1-n1cccn1 [Example 95, 2-{1-[(3R,6R)-6-Methyl-1-{[3-(1H-pyrazol-1-yl)pyrazin-2-yl]carbonyl}piperidin-3-yl]-1H-pyrazol-4-yl}propan-2-ol]",271 nM,> 10000 nM
"C[C@@H]1CC[C@@H](n2cc(C(C)(C)O)cn2)CN1C(=O)c1ccc(F)cc1-n1nccn1 [Example 91, 2-{1-[(3R,6R)-1-{[4-Fluoro-2-(2H-1,2,3-triazol-2-yl)phenyl]carbonyl}-6-methylpiperidin-3-yl]-1H-pyrazol-4-yl}propan-2-ol]",18.8 nM,> 10000 nM
"C[C@@H]1CC[C@@H](n2cc(C(C)(O)C(F)(F)F)cn2)CN1C(=O)c1ccccc1-n1nccn1 (stereo partly drawn) [Example 104, 1,1,1-Trifluoro-2-{1-[(3R,6R)-6-methyl-1-{[2-(2H-1,2,3-triazol-2-yl)phenyl]carbonyl}piperidin-3-yl]-1H-pyrazol-4-yl}propan-2-ol]",13.4 nM,2010 nM
"C[C@@H]1CC[C@@H](n2ncc(C(C)(C)O)n2)CN1C(=O)c1cccnc1-n1nccn1 [Example 59, 2-{2-[(3R,6R)-6-Methyl-1-{[2-(2H-1,2,3-triazol-2-yl)pyridin-3-yl]carbonyl}piperidin-3-yl]-2H-1,2,3-triazol-4-yl}propan-2-ol]",400 nM,> 10000 nM
"C[C@@H]1CC[C@@H](n2ncc(C(C)(C)O)n2)CN1C(=O)c1ccccc1[C@H]1CC1(F)F [Example 23, 2-{2-[(3R,6R)-1-({2-[(1R)-2,2-difluorocyclopropyl]phenyl}carbonyl)-6-methylpiperidin-3-yl]-2H-1,2,3-triazol-4-yl}propan-2-ol]",46.9 nM,> 10000 nM
"CCCc1ccccc1C(=O)N1C[C@H](n2ncc(C(C)(C)O)n2)CC[C@H]1C [Example 4, ((2R,5R)-5-(4-(2-Hydroxypropan-2-yl)-2H-1,2,3-triazol-2-yl)-2-methylpiperidin-1-yl)(2-propylphenyl)methanone]",15.9 nM,8110 nM
"C[C@@H]1CC[C@@H](n2cc([C@@H](O)C(F)(F)F)cn2)CN1C(=O)c1ccccc1-n1nccn1 [Example 102, (1R)-2,2,2-Trifluoro-1-{1-[(3R,6R)-6-methyl-1-{[2-(2H-1,2,3-triazol-2-yl)phenyl]carbonyl}piperidin-3-yl]-1H-pyrazol-4-yl}ethanol]",124 nM,> 10000 nM
